We go through two compounds from publication PMC6268492, “Synthesis and Antiangiogenic Activity of Novel Gambogic Acid Derivatives” (Molecules, 2012).

The test system of one series is LO2. The experiment in a line: MTT assay, cytotoxicity. Type of series: cell-based. The settings on record: Homo sapiens, L02, 24 h, read-out: IC50, inhibition of cell proliferation. An outline of the steps: (§1)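 Cells (5 × 10^3/well) exposed to compound for 24 h at 37 °C, 5% CO2; HepG2, HeLa, LO2 in DMEM and K562 in RPMI 1640, each with 10% FBS. MTT added for 3 h, formazan dissolved in DMSO, absorbance at 570 nm. IC50 = concentration giving 50% inhibition of proliferation versus untreated control.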
For orientation: Tetrazolium dyes change colour on reduction, which living cells bring about.

For series [1], the system named is HUVECs. The experiment in a line: Wound-healing migration assay. The class given is cell-based, Human. As to conditions: 1 μM, 24 h, control = 100%. The text has this: The migration of ECs is an important step of angiogenesis. The continuity of vascular ECs is the most important factor in preserving vessel wall function. Migration of ECs is essential to the recovery of this continuity after vascular ECs injury. […] As illustrated in Figure 3(I), the HUVECs migrated into the wound area actively (between the two white dash lines) under the compound-free condition (control).
Figure 3 Effects on the HUVECs migration. (I) HUVECs suspended in serum-free Dulbecco’s Modified Eagle Medium (DMEM) containing compounds (0.25 or 0.5 or 1 μM) for 24 h were photographed under a phase contrast microscopy (Olympus CKX41, magnification: 50×). Control was treated with serum-free DMEM which was consided as resulting in 100%; (II) Migration rates of compounds on the HUVECs. Data represented the mean standard deviation (SD) from three independent experiments. *** p < 0.005compared with control.
HUVECs were seeded in 6-well plates precoated with 0.1% gelatin, and grown overnight to confluence. The monolayer cells were wounded by scratching with 10 μL pipet tips and washed twice with serum-free DMEM (Dulbecco’s modified eagle medium) to remove the nonadherent cells and then replaced by serum-free DMEM with the indicated concentrations of compounds for 24 h. Images were taken at 0 h and 24 h independently after incubation at 37 °C, 5% CO2 environment. The migrated HUVECs were manually counted. The values were observed from four randomly selected fields.

Another series deals with HUVEC. The experiment in a line: MTT assay, cell proliferation. As to conditions: Homo sapiens, 24 h, read-out: IC50, inhibition of cell proliferation. Type of series: cell-based, Human. The procedure, abridged:
(§2)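 Absorbance at 570 nm of DMSO-dissolved formazan was expressed as percentage growth relative to untreated cells, and IC50 was taken as the concentration giving 50% inhibition. Seeding was 5 × 10^3 cells per well, with 24 h compound treatment followed by 3 h MTT.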

In series [2] the test system is transgenic fli-1: enhanced GFP zebrafish embryos. The experiment in a line: Zebrafish embryo assay: antiangiogenic effects. The class given is in vivo, zebrafish (Danio rerio). As to conditions: zebrafish embryos.
Series [3] relates to zebrafish embryos. The experiment in a line: Zebrafish toxicity: mortality rate. The class given is in vivo, zebrafish (Danio rerio). As for the experimental part:
(§3) To investigate the toxicity of these four compounds, the heart rates and the mortality rates of zebrafish embryos were recorded (Table 2 and Table 3). The heart rate of zebrafish in the control group was 117 beats/min.
(§4) Using transgenic fli-1: enhanced GFP zebrafish embryos, we investigated the effects of all compounds on angiogenesis. Zebrafish embryos were generated by natural pairwise mating and raised at 28.5 °C in embryo water (0.2 g/L of Instant Ocean Salt in distilled water). At about 6 h post fertilization (hpf), the embryos were sorted in the 6-well plate (six embryos/well), removing dead and unhealthy embryos. Then the embryos were treated with the indicated concentrations of compounds which were added into embryo water. After incubation for 24 or 48 h, the embryos were anesthetized using 0.05% 2-phenoxyethanol in embryo water, quantified and photographed.

Series [4] concerns HUVECs. The experiment in a line: Matrigel tube formation assay. Type of series: cell-based, Human. The settings on record: Homo sapiens, HUVEC, 0.5 μM, 6 h, vs control, read-out: inhibitory rates of tube formation. How it is done: In the later stages of angiogenesis, tube formation of ECs is also an important process. Thus, a Matrigel tube formation assay was applied to assess the ability of HUVECs to form ECs vascular structures which is believed to be significant in new vessel formation.
Figure 4 Effects on the HUVECs tube formation. (I) HUVECs (1 × 10^4 cells) suspended in DMEM containing each compound (0.5 or 1 or 2 μM) were added to the Matrigel. Control was treated with DMEM alone. After incubation for 6 h at 37 °C, capillary networks were photographed and quantified (Olympus CKX41, magnification: 100×); (II) Rates of the HUVECs tube formation. The number of intact tubes was counted in five randomly chosen regions and expressed as the percentage of the control. The results were expressed as mean ±SD. ** p < 0.01; *** p < 0.005 compared with control.
Matrigel was dissolved at 4 °C overnight. Each well of prechilled 96-well plates was coated with 50 μL of Matrigel, incubated and solidified at 37 °C for 45 min. After removing the unsolidified fluid, HUVECs at the density of 1 × 10^4 were cultured in DMEM containing the indicated concentrations of compounds for 6 h. Controls were treated with the DMEM alone. Images were digitally captured and quantitatively analyzed (Olympus). The numbers and line lengths of the circular tubules formed by the cells were calculated manually. The values were observed from five randomly selected fields.

The next series relates to K562. The experiment in a line: MTT assay, cell proliferation. The class given is cell-based. The settings on record: Homo sapiens, 24 h, read-out: IC50, inhibition of cell proliferation. An outline of the steps:
as §1

The next series deals with HeLa. The experiment in a line: MTT assay, cell proliferation. Type of series: cell-based. The settings on record: Homo sapiens, 24 h, read-out: IC50, inhibition of cell proliferation. An outline of the steps: as §1
The subject of another series is A549. The experiment in a line: MTT assay, cell proliferation. The settings on record: Homo sapiens, 24 h, read-out: IC50, inhibition of cell proliferation. Type of series: cell-based. An outline of the steps: as §2
The subject of a further series is HCT116. The experiment in a line: MTT assay, cell proliferation. The class given is cell-based. The settings on record: Homo sapiens, HCT-116, 24 h, read-out: IC50, inhibition of cell proliferation. An outline of the steps: as §2
A further series concerns HepG2. The experiment in a line: MTT assay, cell proliferation. Type of series: cell-based. The settings on record: Homo sapiens, 24 h, read-out: IC50, inhibition of cell proliferation. An outline of the steps:
as §1

Series [5] has as its system zebrafish embryos. The experiment in a line: Zebrafish toxicity: heart rates. The class given is in vivo. The settings on record: for Heart rates of zebrafish: control 117 beats/min. As for the experimental part: as §3, §4
[6] abbreviates: Danio rerio, read-out: antiangiogenic rates.
[7] abbreviates: Danio rerio, vs vehicle (0.05% DMSO), read-out: Anti-angiogenic phenotype.

Values joined by “and” are separate entries in the source; they are usually repeats but may differ in a detail not shown here. Equal entries are not always repeated. Where two headings read alike, the source gives them in different places.

For the compound `CC(=O)Nc1ccc(NC(=O)/C(C)=C\CC23OC(C)(C)C4CC(C=C5C(=O)c6c(O)c7c(c(CC=C(C)C)c6OC542)OC(C)(CCC=C(C)C)C=C7)C3=O)cc1` (stereo not shown) [Compound 35, N-(4-acetamidophenyl) gambogamide], the IC50 was found to be 1170 ± 410 nM with LO2; 200 ± 10 nM in the series with HUVEC; 260 ± 10 nM in the series on K562; 490 ± 20 nM with HeLa; 500 ± 50 nM with A549; 400 ± 20 nM with HCT116. The IC50 in the series with HepG2 came to 270 ± 50 nM. This compound also had a migratory rates with HUVECs [1] of 3.6%. Besides, the inhibition in vivo at 1 µM in series [2] (setting [6]) and in [2] (setting [7]) was 25 to 50% throughout. Further, the inhibition in vivo at 2.5 µM in series [2] (Danio rerio, 2.5 μM, vs vehicle (0.05% DMSO), read-out: Anti-angiogenic phenotype) fell in the range of 50 to 75%. Besides, the inhibition in vivo at 10 µM in [2] (Danio rerio, 10 μM, vs vehicle (0.05% DMSO), read-out: Anti-angiogenic phenotype) is greater than 75%. For the same compound, the Mortality rates with zebrafish embryos [3] (1 μM, zebrafish) was 3.3 ± 5.77 %; in the series on zebrafish embryos [3] (2.5 µM and 10 µM, zebrafish embryos) it was “less than 20%”; in the series on zebrafish embryos [3] (2.5 μM, zebrafish), 10 ± 0.00 %; with zebrafish embryos [3] (10 μM, zebrafish), 16.7 ± 5.77 %. The inhibition at 0.5 µM in the series on HUVECs [4] stood at 37%. Further, the “heart rates relative to control group” value in the series on zebrafish embryos [5] (2.5 µM and 10 µM, zebrafish) is on record as “about half of the control group”. In addition, the “Heart rates of zebrafish” value with zebrafish embryos [5] (2.5 μM) amounted to 57 ± 2.61 beats/min; in the series with zebrafish embryos [5] (10 μM), 45 ± 4.95 beats/min.

In the case of `CC(C)=CCC[C@]1(C)C=Cc2c(O)c3c(c(CC=C(C)C)c2O1)O[C@]12C(=C[C@@H]4C[C@H]1C(C)(C)O[C@@]2(C/C=C(/C)C(=O)O)C4=O)C3=O` [GA, Gambogic acid], the IC50 in the series with LO2 stood at 890 ± 80 nM; with HUVEC, 270 ± 10 nM; with K562 it was 490 ± 30 nM; in the series with HeLa it was 1140 ± 60 nM; in the series on A549, 940 ± 30 nM; in the series on HCT116, 590 ± 30 nM. For the same compound, the IC50 in the series with HepG2 came out at 840 ± 40 nM. This compound showed a migratory rates in the series on HUVECs [1] of 2.2%. The Anti-angiogenic phenotype entry in [2] (2.5 μM, vs vehicle (0.05% DMSO)) is “Dead ^b”; in series [2] (10 μM, vs vehicle (0.05% DMSO)), “Dead”. The inhibition in vivo at 1 µM in series [2] (setting [6]) and in [2] (setting [7]) was 25 to 50% throughout. For the same compound, the Mortality rates in the series with zebrafish embryos [3] (1 μM, zebrafish) was 20 ± 0.00%; with zebrafish embryos [3] (2.5 μM, zebrafish), 73.3%; with zebrafish embryos [3] (2.5 μM, zebrafish, listed as A) it was 73.3 ± 5.77%; with zebrafish embryos [3] (10 μM, zebrafish), 100%. In the series with HUVECs [4], the inhibition at 0.5 µM was 26.1%. The “Heart rates of zebrafish” value was 36 beats/min and 36 ± 3.32 beats/min in the series on zebrafish embryos [5] (1 μM); “Dead ^b” in the series on zebrafish embryos [5] (2.5 μM); “Dead” in the series on zebrafish embryos [5] (10 μM).
